In data set [1] the target is T1, MCT1 (Homo sapiens, UniProt P53985).
T1 sequence (P53985 1-500): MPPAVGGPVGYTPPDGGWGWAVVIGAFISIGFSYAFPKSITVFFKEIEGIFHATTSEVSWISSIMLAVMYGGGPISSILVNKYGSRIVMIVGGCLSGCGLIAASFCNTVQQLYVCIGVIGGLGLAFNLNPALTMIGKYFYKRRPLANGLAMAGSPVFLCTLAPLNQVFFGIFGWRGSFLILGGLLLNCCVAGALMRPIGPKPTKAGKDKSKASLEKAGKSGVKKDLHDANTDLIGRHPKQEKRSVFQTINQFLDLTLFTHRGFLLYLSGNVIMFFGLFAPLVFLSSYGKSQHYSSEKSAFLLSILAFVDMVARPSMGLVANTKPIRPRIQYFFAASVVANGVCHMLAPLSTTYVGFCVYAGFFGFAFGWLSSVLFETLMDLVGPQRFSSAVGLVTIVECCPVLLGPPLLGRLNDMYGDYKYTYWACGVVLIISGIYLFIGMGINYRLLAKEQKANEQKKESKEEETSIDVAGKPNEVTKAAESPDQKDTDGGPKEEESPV
T1 sequence (P35613 140-385 partner limits assumed): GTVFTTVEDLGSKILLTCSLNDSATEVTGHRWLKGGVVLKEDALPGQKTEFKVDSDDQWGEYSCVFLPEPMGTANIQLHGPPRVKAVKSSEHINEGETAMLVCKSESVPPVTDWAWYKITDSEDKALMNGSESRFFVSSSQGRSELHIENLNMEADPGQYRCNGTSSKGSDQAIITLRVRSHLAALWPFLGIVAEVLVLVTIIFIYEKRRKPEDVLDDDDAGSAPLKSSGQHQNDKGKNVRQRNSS
The following applies: cited from earlier work.

Data set [2] deals with T1, MCT1. Description: Inducible uptake by LLCPK-TREx cell line containing pTREx-hMCT1 (FIG. 10). Particulars: vs non-tet treated (un-induced) or parental LLCPK cells; pH 6.8, 2 minutes. Further details: expressed in transfected cells; host or cells: LLCPK-TREx cells. The class given is cell-based. Here is the method:
FIG. 10 depicts the results of an uptake experiment showing inducible uptake of (A) ^14C-lactate and (B) thiopheneglyoxylic acid by the LLCPK-TREx cell line containing plasmid pTREx-hMCT1. Uptake of ^14C-lactate was measured as follows: radiolabeled ^14C-lactic acid (˜50,000 cpm/well) was added to each well in triplicate. Experiments were performed in an MES-based saline buffer adjusted to pH 6.8. Plates were incubated at room temperature for 2 minutes. Excess radiolabeled substrate was removed and cells were washed three times with a 96-well plate washer with cold assay buffer. Scintillation fluid was added to each well, the plates were sealed and counted in a 96-well plate-based scintillation counter. Uptake of thiopheneglyoxylic acid was measured similarly to ^14C-lactate, except cells were washed and compound extracted with a 50% ethanol solution. Levels of extracted thiopheneglyoxylate were measured using mass spectroscopy as described above. Negative control values were determined by measuring the uptake into non-tet treated (un-induced) or parental LLCPK (constitutive) cells.

The target in data set [3] is T2, hMCT1-rCD147 fusion protein (Homo sapiens, UniProt P53985, D490E).
T2 sequence (P53985 with tags, fused parts or gaps D490E): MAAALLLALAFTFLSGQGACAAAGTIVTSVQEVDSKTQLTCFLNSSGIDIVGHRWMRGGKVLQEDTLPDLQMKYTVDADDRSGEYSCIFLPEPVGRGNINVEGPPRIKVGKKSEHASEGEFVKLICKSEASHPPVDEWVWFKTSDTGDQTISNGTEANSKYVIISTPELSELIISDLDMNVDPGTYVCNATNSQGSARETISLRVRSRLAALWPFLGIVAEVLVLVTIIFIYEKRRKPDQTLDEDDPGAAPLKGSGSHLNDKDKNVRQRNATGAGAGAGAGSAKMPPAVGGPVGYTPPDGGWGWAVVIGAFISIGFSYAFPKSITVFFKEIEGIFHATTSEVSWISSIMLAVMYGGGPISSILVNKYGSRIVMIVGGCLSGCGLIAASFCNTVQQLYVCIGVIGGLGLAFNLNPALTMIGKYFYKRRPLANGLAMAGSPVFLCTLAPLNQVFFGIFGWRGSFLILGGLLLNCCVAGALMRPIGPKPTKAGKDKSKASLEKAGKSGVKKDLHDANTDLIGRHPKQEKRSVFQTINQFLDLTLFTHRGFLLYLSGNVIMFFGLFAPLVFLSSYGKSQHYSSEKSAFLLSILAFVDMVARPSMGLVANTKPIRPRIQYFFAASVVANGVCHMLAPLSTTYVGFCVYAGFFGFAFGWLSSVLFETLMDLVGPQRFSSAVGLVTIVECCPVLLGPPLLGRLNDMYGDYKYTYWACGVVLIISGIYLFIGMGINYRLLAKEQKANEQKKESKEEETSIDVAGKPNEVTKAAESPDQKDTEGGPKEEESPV
Description: Competitive binding and uptake assay, inhibition of 14C-lactate uptake (FIG. 13). Particulars: cells expressing the fusion protein vs cells endogenously expressing hMCT1. More on the design: rCD147 (rat CD147/basigin) fusion partner; expressed in transfected cells. The class given is cell-based. The method, then: To determine whether a compound interacts with the MCT1 transporter, a competition-binding assay was developed. This assay measures how different concentrations of a test compound block the uptake of a radiolabeled substrate such as lactate. The half-maximal inhibitory concentration (IC50) for inhibition of transport of a substrate by a test compound is an indication of the affinity of the test compound for the MCT1 transporter. Competition binding studies were performed as follows. HEK-PEAK cells were plated in 96-well plates at 100,000 cells/well and incubated at 37° C. for 24 hours. Radiolabeled ^14C-lactic acid (˜50,000 cpm/well) was added to each well in the presence and absence of various concentrations of unlabeled lactic acid in duplicate or triplicate. Competition experiments were performed in an MES-based saline buffer adjusted to pH 6.8. Plates were incubated at room temperature for 2 minutes. Excess radiolabeled substrate was removed and cells were washed three times with a 96-well plate washer with cold assay buffer. Scintillation fluid was added to each well, the plates were sealed and counted in a 96-well plate-based scintillation counter. Data were graphed and analyzed using non-linear regression analysis with Prism Software (GraphPad, Inc., San Diego, Calif.). Competition binding in HEK-PEAK cells is illustrated in FIG. 4B.
To confirm the pharmacology of the hMCT1-rCD147 fusion proteins was the same as that of the unmodified version of hMCT1, the hMCT1-rCD147-expressing cells lines were tested in a competitive binding and uptake assay. Eight different MCT1 substrates were tested for their ability to inhibit the uptake of ^14C-lactate into isolated cell lines inducibly or constitutively expressing hMCT1-rCD147 fusion protein and into cells endogenously expressing hMCT1.

The target in data set [4] is T1, MCT1. Briefly: Uptake of tritiated GHB, cells over expressing MCT1 protein (FIG. 14). The following applies: compared with control cells. The class given is cell-based. More on the design: expressed in transfected cells; host or cells: LLCPK-TREx cells. Here is the method: (§1) To determine whether […] (GHB) is a substrate for MCT1, an uptake assay was performed using tritiated […].

The target of data set [5] is T2, hMCT1-rCD147 fusion protein. Description: Uptake of tritiated GHB, cells expressing hMCT1-rCD147 fusion protein (FIG. 14). It counts as cell-based. The following applies: inducibly or constitutively expressing cells, compared with uninduced or control cells. Further details: rCD147 (rat CD147/basigin) fusion partner; expressed in transfected cells; host or cells: LLCPK-TREx cells (pTREx-hMCT1-rCD147 inducible, pMO-hMCT1-rCD147 constitutive). Here is the method:
as §1

A further data set has as its target PgP (Homo sapiens, UniProt P08183). Description: Cellular transwell monolayer efflux assay, MDCK cells transfected with TREx-PgP (FIG. 8). The method, then: A third type of efflux transporter assay is the cellular transwell monolayer efflux assay. […] The cells form a polarized monolayer. The transwell dishes have apical and basolateral chambers that are separated by the filter membrane on which the polarized monolayer is situated. Assays are performed by placing a test compound in either the apical or basolateral chamber, followed by sampling the opposite chamber after a predetermined period of time such as 60-120 minutes and measuring the amount of the test compound. The test compound can be measured by methods such as radiolabel detection or LC-MS-MS analysis. Assays are performed in the presence and absence of an efflux transporter inhibitor or competitor. Efflux transporter inhibitors or competitors increase apical to basolateral transport and decrease basolateral to apical transport of compounds that are efflux transporter substrates. Apparent permeability (Papp) of test compounds is measured. […] Test compounds that generate ratios between 1.5 and 2.0 require additional testing to determine if they are efflux transporter substrates.
MDCK cells transfected with the tetracycline-inducible TREx-PgP expression vector were seeded on polycarbonate filter membranes in transwell dishes and grown for 3-5 days, yielding a polarized monolayer with tight junctions between cells. […] The left set of bars depicts apical to basolateral transport, while the right set of bars depicts basolateral to apical transport.

Data set [6] deals with T1, MCT1. Description: 14C-lactate uptake assay in HEK-TREx cells transfected with tet-MCT1 inducible construct. It counts as cell-based. More on the design: expressed in transfected cells. Particulars: tet-induced vs non-induced. The method, then: Human MCT1 (hMCT1) is expressed at high levels in most mammalian cell lines. hMCT1 is a high capacity transporter, so low levels of hMCT1 expression may result in significant substrate transport. To control the level of hMCT expression, an inducible tet promoter-hMCT1 expression construct was prepared using the Gateway plasmid cloning system following manufacturers instructions (Invitrogen). The tet-MCT1 inducible construct was transfected into HEK-TREx cells using Fugene transfection following manufacturers instructions (Roche Biosciences). When the transfected cells were tested in an uptake assay, the amount of tetracycline-inducible MCT1 -mediated transport of ^14C-lactate was about 20% higher than the level of endogenous uptake seen in non-induced cells. The addition of an excess of unlabeled lactate competed with the uptake of ^14C-lactate.

Data set [7] addresses T1, MCT1. Description: 14C-lactate uptake in Xenopus oocytes injected with MCT1 cRNA (FIG. 2). It counts as cell-based. Further details: expressed in transfected cells; host or cells: Xenopus oocytes injected with MCT1 cRNA. Particulars: oocytes expressing MCT1 vs oocytes expressing MCT4 or noninjected control oocytes.
[8] abbreviates: 2.5 nM 3H-vinblastine, in the presence of 250 μM verapamil.

Sequence of PgP (P08183 whole entry): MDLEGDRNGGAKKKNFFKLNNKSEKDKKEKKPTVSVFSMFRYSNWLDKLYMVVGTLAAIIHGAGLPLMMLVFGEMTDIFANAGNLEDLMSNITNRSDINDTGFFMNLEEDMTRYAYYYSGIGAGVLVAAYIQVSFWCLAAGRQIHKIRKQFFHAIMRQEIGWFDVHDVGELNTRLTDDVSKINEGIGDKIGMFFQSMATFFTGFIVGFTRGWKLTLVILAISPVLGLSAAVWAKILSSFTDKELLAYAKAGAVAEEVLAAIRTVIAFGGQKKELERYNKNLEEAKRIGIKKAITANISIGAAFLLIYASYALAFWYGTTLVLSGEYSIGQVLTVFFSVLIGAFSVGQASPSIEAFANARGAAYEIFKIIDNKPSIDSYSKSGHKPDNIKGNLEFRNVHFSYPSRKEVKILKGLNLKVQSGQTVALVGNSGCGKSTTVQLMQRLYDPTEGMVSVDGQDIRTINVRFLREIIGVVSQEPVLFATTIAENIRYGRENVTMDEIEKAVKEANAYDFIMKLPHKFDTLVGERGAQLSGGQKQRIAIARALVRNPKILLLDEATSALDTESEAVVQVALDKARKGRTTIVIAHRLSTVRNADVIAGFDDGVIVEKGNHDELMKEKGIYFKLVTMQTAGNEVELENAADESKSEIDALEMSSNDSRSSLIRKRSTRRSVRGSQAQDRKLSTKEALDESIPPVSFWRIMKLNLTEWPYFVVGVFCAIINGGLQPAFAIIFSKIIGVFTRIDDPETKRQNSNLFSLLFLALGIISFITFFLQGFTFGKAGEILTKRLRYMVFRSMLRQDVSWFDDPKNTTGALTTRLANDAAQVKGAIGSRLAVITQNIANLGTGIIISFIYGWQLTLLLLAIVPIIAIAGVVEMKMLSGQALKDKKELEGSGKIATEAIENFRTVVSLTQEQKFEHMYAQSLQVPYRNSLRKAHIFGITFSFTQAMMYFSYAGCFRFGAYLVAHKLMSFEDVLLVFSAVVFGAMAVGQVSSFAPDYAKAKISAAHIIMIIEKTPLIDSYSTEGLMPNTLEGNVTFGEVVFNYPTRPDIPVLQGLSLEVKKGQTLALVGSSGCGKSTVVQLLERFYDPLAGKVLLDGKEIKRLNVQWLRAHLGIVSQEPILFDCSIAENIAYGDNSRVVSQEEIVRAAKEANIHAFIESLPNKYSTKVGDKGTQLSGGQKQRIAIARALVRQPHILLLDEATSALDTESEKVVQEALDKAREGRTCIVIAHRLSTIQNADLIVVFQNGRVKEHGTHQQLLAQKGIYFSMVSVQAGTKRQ

Regarding `O=C(O)C(=O)c1cccs1` [2-Thiophene glyoxylate], the “Reported Affinity for MCT1” value at MCT1 [1] is recorded as 3 mM. Moreover, the “MCT1 substrate uptake upon induction with tetracycline” value on MCT1 [2] is “significant increase”. The “affinity for the MCT1-rCD147 fusion protein compared with hMCT1 alone” value (“affinity … compared with hMCT1 alone” below) in data set [3] is on record as “higher affinity”.

Consider `CCCC(=O)O` [Butyric Acid], for which, at MCT1 [1], the “Reported Affinity for MCT1” value was 8 mM.

For the compound `CC1(C)S[C@@H]2[C@H](NC(=O)C(C(=O)Oc3ccc4c(c3)CCC4)c3ccccc3)C(=O)N2[C@H]1C(=O)O` (stereo partly drawn) [Carindicillin], the “Reported Affinity for MCT1” value at MCT1 [1] is >5 mM.

`CC(C)C[C@H](O)C(=O)O` [Compound 2, L-alpha-hydroxy-isocaproic acid]: the “affinity … compared with hMCT1 alone” value in data set [3] is “higher affinity”.

For the compound `O=C(O)c1ccccc1` [Compound 5, benzoic acid], the “affinity … compared with hMCT1 alone” value in data set [3] is recorded as “higher affinity”.

As for `O=C(O)Cc1ccccc1` [Compound 8, phenylacetic acid], the “affinity … compared with hMCT1 alone” value in data set [3] was “higher affinity”.

With `CCC(O)C(=O)O` (stereo not drawn) [GHB, α-hydroxybutyrate], the “uptake of labeled GHB” value (at MCT1 [4]; in data set [5]) was “increased uptake” throughout.

For the compound `CC(O)C(=O)O` (stereo not drawn) [Lactic Acid, lactic acid], on MCT1 [1], the “Reported Affinity for MCT1” value is reported as 2 mM. The “affinity … compared with hMCT1 alone” value in data set [3] is on record as “higher affinity”.

In the case of `O=C(O)c1cccnc1` [Nicotinic Acid, nicotinic acid], the “Reported Affinity for MCT1” value at MCT1 [1] is on record as 4 mM. The “affinity … compared with hMCT1 alone” value in data set [3] is “higher affinity”.

Turning to `O=C(CCc1ccc(O)cc1)c1c(O)cc(O)cc1O` [Phloretin], the “Reported Affinity for MCT1” value at MCT1 [1] is given as 0.2 mM.

In the case of `CC(=O)C(=O)O` [Pyruvic Acid], the “Reported Affinity for MCT1” value on MCT1 [1] is 1 mM.

Take `O=C(O)c1ccccc1O` [Salicylic Acid]: the “Reported Affinity for MCT1” value on MCT1 [1] is given as >5 mM.

For the compound `O=C(O)c1cc(/N=N/c2ccc(S(=O)(=O)Nc3ccccn3)cc2)ccc1O` [Sulfasalazine], the “Reported Affinity for MCT1” value on MCT1 [1] was 0.15 mM.

Regarding `CC[C@]1(O)C[C@@H]2CN(CCc3c([nH]c4ccccc34)[C@@](C(=O)OC)(c3cc4c(cc3OC)N(C)[C@H]3[C@@](O)(C(=O)OC)[C@H](OC(C)=O)[C@]5(CC)C=CCN6CC[C@]43[C@@H]65)C2)C1` [^3H-vinblastine], at PgP (setting [8]), the “Apical to basolateral transport” value was “strongly increased” and the “basolateral to apical transport” value is “strongly decreased”. Besides, at PgP (conclusion from transport with and without verapamil), the “efflux transporter substrate status” value was “substrate of PgP”.

Regarding ^14C-lactic acid [^14C-lactate], the “tetracycline-inducible MCT1-mediated transport, higher than endogenous uptake in non-induced cells” value on MCT1 [6] is on record as “about 20%”. Moreover, the “MCT1 substrate uptake upon induction with tetracycline” value on MCT1 [2] was “significant increase”. Moreover, the 14C-lactate uptake result on MCT1 [7] is given as “higher levels”.

(Values after US7452680B2, “MCT1 transporters expressed in blood brain barrier cells” (XenoPort, Inc., priority 2004, dated 2008).)
